Here are results for 13 compounds from patent US10435405B2, “Pyrazolopyridine compounds and uses thereof” (Incyte Corporation, priority 2016, dated 2019).

The Ki is the dissociation constant of the complex between target and ligand, obtained from inhibition or displacement.

Sequence of HPK1 (Q92918 1-346): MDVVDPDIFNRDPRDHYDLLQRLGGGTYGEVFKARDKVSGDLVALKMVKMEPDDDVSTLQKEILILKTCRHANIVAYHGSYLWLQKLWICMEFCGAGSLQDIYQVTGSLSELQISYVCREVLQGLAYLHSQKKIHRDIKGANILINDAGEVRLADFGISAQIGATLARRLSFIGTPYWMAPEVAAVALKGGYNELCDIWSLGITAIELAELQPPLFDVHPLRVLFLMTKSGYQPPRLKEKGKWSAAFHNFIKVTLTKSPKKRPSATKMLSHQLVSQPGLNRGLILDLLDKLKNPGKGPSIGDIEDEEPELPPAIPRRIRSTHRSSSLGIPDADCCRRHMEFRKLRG

The assay has as its target HPK1 (Homo sapiens (Human), UniProt Q92918). In words: HPK1 Kinase Binding Assay. The procedure: A stock solution of 1 mM test compound was prepared in DMSO. The compound plate was prepared by 3-fold and 11-point serial dilutions. 0.1 μL of the compound in DMSO was transferred from the compound plate to the white 384 well polystyrene plates. The assay buffer contained 50 mM HEPES, pH 7.5, 0.01% Tween-20, 5 mM MgCl2, 0.01% BSA, and 5 mM DTT. 5 μl of 4 nM active HPK1 (SignalChem M23-11G) prepared in the buffer was added to the plate. The enzyme concentration given was based on the given stock concentration reported by the vender. 5 μl of 18 nM tracer 222 (ThermoFisher PV6121) and 4 nM LanthaScreen Eu-Anti GST antibody (ThermoFisher PV5595) were added. After one hour incubation at 25° C., the plates were read on a PHERAstar FS plate reader (BMG Labtech). Ki values were determined.
In turn, `CN1CCN(c2ccc(-c3n[nH]c4cnc(-c5c(F)cccc5C(F)(F)F)cc34)cc2)CC1` [Example 53, 5-(2-Fluoro-6-(trifluoromethyl)phenyl)-3-(4-(4-methylpiperazin-1-yl)phenyl)-1H-pyrazolo[3,4-c]pyridine] yielded a Ki not above 100 nM.

`COc1cccc(F)c1-c1cc2c(C(=O)Nc3ccc(N4CCN(C)CC4)cc3)n[nH]c2cn1` [Example 54, 5-(2-Fluoro-6-methoxyphenyl)-N-(4-(4-methylpiperazin-1-yl)phenyl)-1H-pyrazolo[3,4-c]pyridine-3-carboxamide] yielded a Ki not above 100 nM.

Compound `COc1cccc(F)c1-c1cc2c(C(=O)Nc3ccc(N4CCOCC4)cc3)n[nH]c2cn1` [Example 55, 5-(2-Fluoro-6-methoxyphenyl)-N-(4-morpholinophenyl)-1H-pyrazolo[3,4-c]pyridine-3-carboxamide] gave a Ki not above 100 nM.

Compound `CCN1CCN(c2ccc(NC(=O)c3n[nH]c4cnc(-c5c(F)cccc5OC)cc34)cc2)CC1` [Example 56, N-(4-(4-Ethylpiperazin-1-yl)phenyl)-5-(2-fluoro-6-methoxyphenyl)-1H-pyrazolo[3,4-c]pyridine-3-carboxamide] gave an inhibition constant Ki not above 100 nM.

In the case of `COCCNC(=O)c1cc(F)c(-c2cc3c(-c4cnn(C)c4)n[nH]c3cn2)c(F)c1` [Example 57, 3,5-Difluoro-N-(2-methoxyethyl)-4-(3-(1-methyl-1H-pyrazol-4-yl)-1H-pyrazolo[3,4-c]pyridin-5-yl)benzamide], the inhibition constant Ki is not above 100 nM.

Compound `COC1CN(C(=O)c2cc(F)c(-c3cc4c(-c5cnn(C)c5)n[nH]c4cn3)c(F)c2)C1` [Example 58, (3,5-Difluoro-4-(3-(1-methyl-1H-pyrazol-4-yl)-1H-pyrazolo[3,4-c]pyridin-5-yl)phenyl)(3-methoxyazetidin-1-yl)methanone] came in with a Ki not above 100 nM.

`Cn1cc(-c2n[nH]c3cnc(-c4c(F)ccc(NC(=O)C5CCC5)c4F)cc23)cn1` [Example 59, N-(2,4-Difluoro-3-(3-(1-methyl-1H-pyrazol-4-yl)-1H-pyrazolo[3,4-c]pyridin-5-yl)phenyl)cyclobutanecarboxamide] registered a Ki not above 100 nM.

For `Cn1cc(-c2n[nH]c3cnc(-c4c(F)ccc(NC(=O)Cc5ccccc5)c4F)cc23)cn1` [Example 60, N-(2,4-Difluoro-3-(3-(1-methyl-1H-pyrazol-4-yl)-1H-pyrazolo[3,4-c]pyridin-5-yl)phenyl)-2-phenylacetamide], the Ki was not above 100 nM.

`CNc1ccc(F)c(-c2cc3c(-c4cnn(C)c4)n[nH]c3cn2)c1F` [Example 61, 2,4-Difluoro-N-methyl-3-(3-(1-methyl-1H-pyrazol-4-yl)-1H-pyrazolo[3,4-c]pyridin-5-yl)aniline] displayed a Ki not above 100 nM.

Take `CN(C)c1ccc(F)c(-c2cc3c(-c4cnn(C)c4)n[nH]c3cn2)c1F` [Example 62, 2,4-Difluoro-N,N-dimethyl-3-(3-(1-methyl-1H-pyrazol-4-yl)-1H-pyrazolo[3,4-c]pyridin-5-yl)aniline]: the Ki was not above 100 nM.

Compound `CN(C)c1cc(F)c(-c2cc3c(-c4cnn(C)c4)n[nH]c3cn2)c(F)c1` [Example 63, 3,5-Difluoro-N,N-dimethyl-4-(3-(1-methyl-1H-pyrazol-4-yl)-1H-pyrazolo[3,4-c]pyridin-5-yl)aniline] displayed a Ki not above 100 nM.

On to `Cn1cc(-c2n[nH]c3cnc(-c4c(F)cc(NC(=O)CN5CCCC5)cc4F)cc23)cn1` [Example 64, N-(3,5-Difluoro-4-(3-(1-methyl-1H-pyrazol-4-yl)-1H-pyrazolo[3,4-c]pyridin-5-yl)phenyl)-2-(pyrrolidin-1-yl)acetamide], for which the Ki was not above 100 nM.

The compound `Cn1cc(C(=O)Nc2cc(F)c(-c3cc4c(-c5cnn(C)c5)n[nH]c4cn3)c(F)c2)cn1` [Example 65, N-(3,5-Difluoro-4-(3-(1-methyl-1H-pyrazol-4-yl)-1H-pyrazolo[3,4-c]pyridin-5-yl)phenyl)-1-methyl-1H-pyrazole-4-carboxamide] had a Ki not above 100 nM.
